In patent publication EP0091796A1, “Process for removing 1-sulfonyl groups from benzimidazoles” (ELI LILLY AND COMPANY, priority 1982, dated 1983):

Assay: pKa determination in 66% DMF/H2O
Settings: for pKa: 66% dmf/h2o; for pK: solvent not given

Row | Compound | pKa (single or first (lower) pKa) | also measured
1 | CON=C(c1ccccc1)c1ccc2nc(N)[nH]c2c1 [Example 1, 2-amino-5(6)-methoximephenylbenzimidazole] | 8.88 | 
2 | CC=C(c1ccccc1)c1ccc2nc(N)[nH]c2c1 [Example 2, 2-amino-5(6)-(ethylidenebenz^yl)benzimidazole] | 6.98 | 
3 | C/C=C(\c1ccccc1)c1ccc2nc(N)[nH]c2c1 [Example 3, trans-2-amino-5(6)-(ethylidenebenzyl)benzimidazole] | 7.05 | 
4 | C=C(c1ccccc1)c1ccc2nc(N)[nH]c2c1 [Example 6, 2-amino-5(6)-(methylidenebenzyl)benzimidazole] | 6.8 | 
5 | Nc1nc2cc(C(=O)c3ccccc3)ccc2[nH]1 [Example 7, 2-amino-5(6)-benzoylbenzimidazole] |  | pK (first (lower) printed value): 5.65; pK (second (higher) printed value): 13.0
6 | Nc1nc2ccc(C(=O)c3ccccc3)cc2[nH]1 [Example 8, 2-amino-5(6)-benzoylbenzimidazole] | 5.7 | pKa (second (higher) printed pKa): 13.2
